Data: patent US20070160501A1, “Device and method for treating a crystal by applying microdrops thereto” (PROTEROS BIOSTRUCTURES GMBH, priority 2003, published 2007)

Tests used:
human α-thrombin = human α-thrombin (Homo sapiens, UniProt P00734); conditions: stated in brackets without method; inhibitor used with human α-thrombin; cited from earlier work
[1] = cited from earlier work
Human a Thrombin = Human a Thrombin (Homo sapiens, UniProt P00734); assay: Binding of PMSF to a freely mounted thrombin crystal by dripping on microdrops, X-ray crystallographic examination; conditions: 100 mM PMSF in isopropyl alcohol dripped on thrombin crystal; active center around Ser195; FIG. 4
Text: A thrombin crystal was mounted on the free mounting system by means of a loop at a previously determined initial humidity of 93%. Under a microscope, surplus reservoir buffer was cautiously removed from the loop by means of a strip of filter paper. The stability and the consistency of the size of the crystal, respectively, were monitored by means of the video system.
Herein, a highly concentrated PMSF solution in an organic solvent was used.
Subsequently, the crystal was bombarded with individual drops (single shot mode) of the solution. The total volume dripped on approximately corresponded to the volume of the crystal, i.e. about 300 pl. […] Herein, the projection of the surface of the crystal was monitored after each dripping-on and it was waited until the surface remained uniform again before the next drop was applied. The individual parameters of the experiment can be seen in Table 1.
After completion of dripping-on, the crystal was moistened with PFPE oil (perfluoropolyether) and shock-frozen in liquid nitrogen. The X-ray crystallographic data record was recorded on a rotating copper anode. Data processing was conducted by means of the programs XDS and XSCALE, refinement and manual model construction was conducted by means of the programs CNX and O. The statistics of data collection, processing, and refinement are given in Table 2.

| SMILES | Ki (human α-thrombin) | stability in an aqueous system [1] | binding mode seen in the experimentally determined electron density (Human a Thrombin) |
| --- | --- | --- | --- |
| Cl.NCCc1ccc(S(=O)(=O)F)cc1 [Pefabloc SC, 4-(2-aminoethyl)-benzenesulfonyl-fluoride-hydrochloride] | 6.5 µM | high stability in an aqueous system |  |
| O=S(=O)(F)Cc1ccccc1 [PMSF, Phenylmethylsulfonyl Fluoride] |  |  | covalent bond of the PMSF at Ser195 |
